Assay results taken from patent publication US6410553B1, “Benzosulfones and related compositions and methods” (Ortho-McNeil Pharmaceutical, Inc., priority 2000, dated 2002).
pIC50: −log10 of the molar value.

These compounds were tested against T1, calcium channel (3H-nitrendipine binding, rabbit heart membranes) (Oryctolagus cuniculus, UniProt P15381) (assay: Assay for Inhibition of Nitrendipine Binding). Conditions: 3H-nitrendipine (0.05-0.50 nM), 90 minutes at 4° C.
T1 construct: from tissue; host or cells: rabbit heart (crude membrane pellet)
Method: Assay for Inhibition of Nitrendipine Binding
Female, New Zealand white rabbits (1-2 kg) are sacrificed by cervical dislocation, and the heart is immediately removed, cleaned and chopped into small pieces. The tissue is homogenized in 5×times volume of 0.05M Hepes buffer, pH 7.4. The homogenate is centrifuged at 4000 g for 10 minutes, and the supernatant is re-centrifuged at 42,000×g for 90 minutes. The resulting membrane pellet is resuspended (0.7 ml/g weight) in 0.05M Hepes, pH 7.4 and stored at […] until used. Each tube of the binding assay contains ^3H-nitrendipine (0.05-0.50 nM), buffer, membranes (0.10 ml), and test compound in a total volume of 1.0 ml. After 90 minutes at 4° C., the bound nitrendipine is separated from the unbound by filtration on Whatman GF/C filters. After rinsing, the filters are dried and counted in a liquid scintillation counter.
Non-specific binding of ^3H-nitrendipine (that amount bound in the presence of excess unlabelled nitrendipine) is subtracted from the total bound to obtain specifically bound radiolabeled nitrendipine. The amount of specifically bound nitrendipine in the presence of a test compound is compared to that amount bound in the absence of a compound. A percent displacement (or inhibition) can then be calculated.

T1 sequence (P15381 whole entry, other chains not shown): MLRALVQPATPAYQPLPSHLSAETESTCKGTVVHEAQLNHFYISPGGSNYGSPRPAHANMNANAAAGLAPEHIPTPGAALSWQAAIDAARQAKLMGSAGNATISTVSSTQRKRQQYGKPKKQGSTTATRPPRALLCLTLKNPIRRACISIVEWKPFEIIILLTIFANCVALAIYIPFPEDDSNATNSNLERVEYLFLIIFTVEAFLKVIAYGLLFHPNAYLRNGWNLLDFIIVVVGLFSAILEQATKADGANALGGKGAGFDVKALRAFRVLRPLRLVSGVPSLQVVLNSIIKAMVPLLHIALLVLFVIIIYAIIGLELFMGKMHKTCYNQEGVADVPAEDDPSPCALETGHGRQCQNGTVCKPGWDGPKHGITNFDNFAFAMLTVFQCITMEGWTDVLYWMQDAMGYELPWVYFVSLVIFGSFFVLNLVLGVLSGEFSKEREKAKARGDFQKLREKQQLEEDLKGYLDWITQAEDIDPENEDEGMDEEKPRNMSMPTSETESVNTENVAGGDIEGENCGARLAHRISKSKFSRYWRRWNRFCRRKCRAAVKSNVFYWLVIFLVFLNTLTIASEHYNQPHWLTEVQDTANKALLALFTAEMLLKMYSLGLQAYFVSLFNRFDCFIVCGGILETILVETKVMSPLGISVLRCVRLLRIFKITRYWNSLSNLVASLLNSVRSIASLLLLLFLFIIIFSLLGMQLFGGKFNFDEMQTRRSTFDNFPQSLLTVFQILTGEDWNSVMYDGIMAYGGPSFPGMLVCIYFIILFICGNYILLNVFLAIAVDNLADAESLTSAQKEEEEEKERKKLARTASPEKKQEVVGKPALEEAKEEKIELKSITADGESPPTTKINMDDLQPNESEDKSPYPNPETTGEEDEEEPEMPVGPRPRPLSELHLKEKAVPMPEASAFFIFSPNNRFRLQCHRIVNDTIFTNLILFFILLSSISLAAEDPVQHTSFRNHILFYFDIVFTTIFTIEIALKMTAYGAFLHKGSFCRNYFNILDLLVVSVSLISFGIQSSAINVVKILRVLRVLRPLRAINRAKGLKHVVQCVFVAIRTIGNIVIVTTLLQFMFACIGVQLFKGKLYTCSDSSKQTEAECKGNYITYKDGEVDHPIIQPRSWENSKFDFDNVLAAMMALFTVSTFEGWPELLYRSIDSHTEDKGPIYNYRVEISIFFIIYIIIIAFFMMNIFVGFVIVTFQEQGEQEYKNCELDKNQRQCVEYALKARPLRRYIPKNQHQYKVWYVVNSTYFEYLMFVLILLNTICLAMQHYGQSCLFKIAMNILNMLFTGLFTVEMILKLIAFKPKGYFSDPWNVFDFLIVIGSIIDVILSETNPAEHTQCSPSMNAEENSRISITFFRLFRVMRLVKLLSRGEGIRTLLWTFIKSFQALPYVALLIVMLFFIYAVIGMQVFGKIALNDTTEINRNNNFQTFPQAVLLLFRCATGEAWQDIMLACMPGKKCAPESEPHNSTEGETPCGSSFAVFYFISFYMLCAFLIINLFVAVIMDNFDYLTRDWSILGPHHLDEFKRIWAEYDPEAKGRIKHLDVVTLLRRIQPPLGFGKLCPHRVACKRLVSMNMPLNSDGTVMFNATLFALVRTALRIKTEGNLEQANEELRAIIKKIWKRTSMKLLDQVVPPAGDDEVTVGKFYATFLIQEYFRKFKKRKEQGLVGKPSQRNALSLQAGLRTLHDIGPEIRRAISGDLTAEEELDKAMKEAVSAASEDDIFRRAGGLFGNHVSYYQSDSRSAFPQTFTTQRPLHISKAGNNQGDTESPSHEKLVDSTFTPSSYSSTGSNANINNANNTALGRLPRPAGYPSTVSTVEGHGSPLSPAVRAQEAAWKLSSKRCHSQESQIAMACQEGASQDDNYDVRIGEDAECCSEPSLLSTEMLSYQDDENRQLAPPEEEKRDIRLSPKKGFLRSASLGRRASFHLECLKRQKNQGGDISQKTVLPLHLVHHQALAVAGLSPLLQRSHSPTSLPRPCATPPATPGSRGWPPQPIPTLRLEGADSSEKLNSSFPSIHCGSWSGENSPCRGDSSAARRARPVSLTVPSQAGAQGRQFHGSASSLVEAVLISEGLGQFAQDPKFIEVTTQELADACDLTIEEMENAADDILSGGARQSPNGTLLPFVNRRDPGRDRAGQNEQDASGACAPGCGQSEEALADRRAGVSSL
T1 sequence (P13806 27-960 partner limits assumed, other chains not shown): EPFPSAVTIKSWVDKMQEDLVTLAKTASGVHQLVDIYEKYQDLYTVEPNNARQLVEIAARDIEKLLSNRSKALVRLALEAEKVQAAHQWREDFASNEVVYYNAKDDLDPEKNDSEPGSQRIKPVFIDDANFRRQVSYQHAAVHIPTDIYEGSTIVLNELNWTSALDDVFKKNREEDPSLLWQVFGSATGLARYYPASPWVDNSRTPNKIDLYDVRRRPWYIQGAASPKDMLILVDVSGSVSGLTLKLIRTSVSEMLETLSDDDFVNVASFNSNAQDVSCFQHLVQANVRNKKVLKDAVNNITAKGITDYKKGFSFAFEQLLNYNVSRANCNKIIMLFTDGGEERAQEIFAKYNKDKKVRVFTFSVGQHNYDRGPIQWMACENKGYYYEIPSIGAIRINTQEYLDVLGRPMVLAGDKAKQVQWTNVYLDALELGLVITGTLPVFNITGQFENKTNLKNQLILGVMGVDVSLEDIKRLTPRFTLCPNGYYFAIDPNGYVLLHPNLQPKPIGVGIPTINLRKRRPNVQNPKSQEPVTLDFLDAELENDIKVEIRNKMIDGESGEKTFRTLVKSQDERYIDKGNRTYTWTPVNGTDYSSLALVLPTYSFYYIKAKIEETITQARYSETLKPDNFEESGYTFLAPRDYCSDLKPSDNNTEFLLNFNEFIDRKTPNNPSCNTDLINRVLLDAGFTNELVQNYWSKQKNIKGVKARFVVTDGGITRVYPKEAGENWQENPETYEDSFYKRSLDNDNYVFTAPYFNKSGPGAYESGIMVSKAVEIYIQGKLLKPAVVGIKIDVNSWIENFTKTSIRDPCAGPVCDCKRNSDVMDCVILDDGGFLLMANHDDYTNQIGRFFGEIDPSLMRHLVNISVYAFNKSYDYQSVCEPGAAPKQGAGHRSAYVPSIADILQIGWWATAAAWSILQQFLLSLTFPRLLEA
T1 sequence (P13806 961-1106 partner limits assumed, other chains not shown): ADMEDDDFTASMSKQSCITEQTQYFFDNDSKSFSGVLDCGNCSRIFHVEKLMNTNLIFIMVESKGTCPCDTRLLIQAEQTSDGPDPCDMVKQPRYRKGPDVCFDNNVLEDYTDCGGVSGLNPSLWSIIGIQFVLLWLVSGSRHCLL

Structure (SMILES)	pIC50
COC(=O)C1=C(C)NC2=C(C1c1c(O)cccc1Cl)S(=O)(=O)CCc1ccccc12 (centres unmarked) [Compound 9, [3]Benzothiepino[1,2-b]pyridine-3-carboxylic acid, 4-(2-chloro-6-hydroxyphenyl)-1,4,6,7-tetrahydro-2-methyl-, methyl ester, 5,5-dioxide]	5.89
COC(=O)C1=C(C)NC2=C(C1c1c(F)c(F)c(F)c(F)c1F)S(=O)(=O)CCc1ccccc12 (centres unmarked) [Compound 4, [3]Benzothiepino[1,2-b]pyridine-3-carboxylic acid, 1,4,6,7-tetrahydro-2-methyl-4-(pentafluorophenyl)-, methyl ester, 5,5-dioxide]	6.58
CC1=C(C(=O)OCCN(C)Cc2ccccc2)C(c2cccc(Cl)c2Cl)C2=C(N1)c1ccccc1CCS2(=O)=O (centres unmarked) [Compound 2, [3]Benzothiepino[1,2-b]pyridine-3-carboxylic acid, 4-(2,3-dichlorophenyl)-1,4,6,7-tetrahydro-2-methyl-, 2-[methyl(phenylmethyl)amino]ethyl ester, 5,5-dioxide]	6.93
COC(=O)C1=C(C)NC2=C(C1c1cccc([N+](=O)[O-])c1)S(=O)(=O)CCc1ccccc12 (centres unmarked) [Compound 8, [3]Benzothiepino[1,2-b]pyridine-3-carboxylic acid, 1,4,6,7-tetrahydro-2-methyl-4-(3-nitrophenyl)-, methyl ester, 5,5-dioxide]	6.58
CC1=C(C(=O)OCCN(C)Cc2cccs2)C(c2ccccc2Cl)C2=C(N1)c1ccccc1CCS2(=O)=O (centres unmarked) [Compound 10, [3]Benzothiepino[1,2-b]pyridine-3-carboxylic acid, 4-(2-chlorophenyl)-1,4,6,7-tetrahydro-2-methyl-, 2-[methyl(2-thienylmethyl)amino]ethyl ester, 5,5-dioxide]	7.00
COC(=O)C1=C(C)NC2=C(C1c1cccc(Cl)c1)S(=O)(=O)CCc1ccccc12 (centres unmarked) [Compound 6, [3]Benzothiepino[1,2-b]pyridine-3-carboxylic acid, 4-(3-chlorophenyl)-1,4,6,7-tetrahydro-2-methyl-, methyl ester, 5,5-dioxide]	6.47
COC(=O)C1=C(C)NC2=C(C1c1ccccc1Cl)S(=O)(=O)CCc1ccccc12 (centres unmarked) [Compound 1, [3]Benzothiepino[1,2-b]pyridine-3-carboxylic acid, 4-(2-chlorophenyl)-1,4,6,7-tetrahydro-2-methyl-, methyl ester, 5,5-dioxide]	6.21
COC(=O)C1=C(C)NC2=C(C1c1cccc(Cl)c1Cl)S(=O)(=O)CCc1ccccc12 (centres unmarked) [Compound 3, [3]Benzothiepino[1,2-b]pyridine-3-carboxylic acid, 4-(2,3-dichlorophenyl)-1,4,6,7-tetrahydro-2-methyl-, methyl ester, 5,5-dioxide]	7.42
CC1=C(C(=O)OCCN(C)Cc2ccccc2)C(c2ccccc2Cl)C2=C(N1)c1ccccc1CCS2(=O)=O (centres unmarked) [Compound 11, [3]Benzothiepino[1,2-b]pyridine-3-carboxylic acid, 4-(2-chlorophenyl)-1,4,6,7-tetrahydro-2-methyl-, 2-[methyl(phenylmethyl)amino]ethyl ester, 5,5-dioxide]	6.34
COC(=O)C1=C(C)NC2=C(C1c1ccccc1[N+](=O)[O-])S(=O)(=O)CCc1ccccc12 (centres unmarked) [Compound 5, [3]Benzothiepino[1,2-b]pyridine-3-carboxylic acid, 1,4,6,7-tetrahydro-2-methyl-4-(2-nitrophenyl)-, methyl ester, 5,5-dioxide]	5.72
CC1=C(C(=O)OCCN(C)Cc2cccs2)C(c2cccc(Cl)c2Cl)C2=C(N1)c1ccccc1CCS2(=O)=O (centres unmarked) [Compound 7, [3]Benzothiepino[1,2-b]pyridine-3-carboxylic acid, 4-(2,3-dichlorophenyl)-1,4,6,7-tetrahydro-2-methyl-, 2-[methyl(2-thienylmethyl)amino]ethyl ester, 5,5-dioxide]	7.42
